Assay results published in ChEMBL document CHEMBL6114946, “Development and characterization of pyridyl carboxamides as potent and highly selective Nav1.8 inhibitors” (Bioorg Med Chem Lett, 2025).
Converted amounts (≈) assume the structure as drawn. The source made the active and inactive calls. The rule behind the calls is not given here.

Legend:
[1] = molecular target: T1, Sodium channel protein type 10 subunit alpha (Homo sapiens, UniProt Q9Y5Y9); assay: Inhibition of human Nav1.8 with resting membrane potential at half inactivated state by PatchXpress high-throughput electrophysiology method
Target sequence in this assay (Q9Y5Y9 whole entry): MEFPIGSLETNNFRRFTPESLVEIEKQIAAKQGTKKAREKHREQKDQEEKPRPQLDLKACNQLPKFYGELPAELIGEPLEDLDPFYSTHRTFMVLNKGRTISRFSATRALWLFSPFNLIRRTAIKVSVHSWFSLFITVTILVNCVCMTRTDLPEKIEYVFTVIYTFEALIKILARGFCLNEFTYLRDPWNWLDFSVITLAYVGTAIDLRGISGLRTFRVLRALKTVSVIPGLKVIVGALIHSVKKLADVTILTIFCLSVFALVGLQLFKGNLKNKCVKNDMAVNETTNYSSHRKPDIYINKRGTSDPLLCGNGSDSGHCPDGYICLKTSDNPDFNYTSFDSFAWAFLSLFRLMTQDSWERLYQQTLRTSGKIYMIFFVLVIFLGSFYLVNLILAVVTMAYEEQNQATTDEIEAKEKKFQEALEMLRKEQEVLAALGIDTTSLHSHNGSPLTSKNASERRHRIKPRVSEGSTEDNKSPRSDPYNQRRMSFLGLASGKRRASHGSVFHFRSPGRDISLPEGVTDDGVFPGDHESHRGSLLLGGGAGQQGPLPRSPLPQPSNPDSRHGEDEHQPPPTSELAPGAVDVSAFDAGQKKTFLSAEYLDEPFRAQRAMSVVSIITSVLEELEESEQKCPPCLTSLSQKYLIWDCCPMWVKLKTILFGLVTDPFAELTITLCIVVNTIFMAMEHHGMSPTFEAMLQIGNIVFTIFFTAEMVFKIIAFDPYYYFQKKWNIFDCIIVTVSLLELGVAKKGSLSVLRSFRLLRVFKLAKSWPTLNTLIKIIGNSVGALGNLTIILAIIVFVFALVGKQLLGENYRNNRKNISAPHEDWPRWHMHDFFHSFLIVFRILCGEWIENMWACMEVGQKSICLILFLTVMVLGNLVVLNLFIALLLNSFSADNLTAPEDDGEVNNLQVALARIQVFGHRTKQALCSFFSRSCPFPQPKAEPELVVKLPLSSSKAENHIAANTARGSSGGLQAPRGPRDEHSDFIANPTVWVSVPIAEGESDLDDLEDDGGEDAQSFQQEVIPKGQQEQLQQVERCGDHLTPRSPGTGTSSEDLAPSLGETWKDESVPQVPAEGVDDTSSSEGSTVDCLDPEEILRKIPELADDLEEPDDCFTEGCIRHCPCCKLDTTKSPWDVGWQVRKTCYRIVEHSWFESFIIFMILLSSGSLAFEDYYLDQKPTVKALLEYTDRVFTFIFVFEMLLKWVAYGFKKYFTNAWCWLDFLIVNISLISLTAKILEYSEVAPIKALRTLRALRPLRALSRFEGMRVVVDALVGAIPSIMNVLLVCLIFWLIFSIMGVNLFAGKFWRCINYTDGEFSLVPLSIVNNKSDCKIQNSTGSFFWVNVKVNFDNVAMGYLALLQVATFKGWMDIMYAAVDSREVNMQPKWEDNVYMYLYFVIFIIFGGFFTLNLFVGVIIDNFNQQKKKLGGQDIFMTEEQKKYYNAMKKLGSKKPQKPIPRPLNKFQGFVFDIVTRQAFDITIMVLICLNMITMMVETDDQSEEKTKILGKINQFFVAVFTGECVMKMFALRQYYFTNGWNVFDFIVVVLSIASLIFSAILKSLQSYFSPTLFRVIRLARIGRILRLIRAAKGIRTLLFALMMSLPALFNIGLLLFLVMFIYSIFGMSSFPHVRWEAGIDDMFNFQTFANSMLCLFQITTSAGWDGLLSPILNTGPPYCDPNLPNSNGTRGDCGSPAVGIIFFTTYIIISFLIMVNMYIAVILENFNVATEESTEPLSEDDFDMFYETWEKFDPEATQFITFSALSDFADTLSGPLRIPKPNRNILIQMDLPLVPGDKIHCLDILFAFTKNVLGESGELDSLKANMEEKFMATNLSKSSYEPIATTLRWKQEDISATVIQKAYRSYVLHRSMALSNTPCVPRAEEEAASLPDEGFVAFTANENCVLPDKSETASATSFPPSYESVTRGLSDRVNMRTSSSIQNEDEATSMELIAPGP

[2] = molecular target: T1, Sodium channel protein type 10 subunit alpha; assay: Inhibition of Nav1.8 (unknown origin) at 10 uM by Ionflux high-throughput automated patch method
Target sequence in this assay (Q9Y5Y9 whole entry, looked up): as the sequence (Q9Y5Y9 whole entry) above

[3] = Kinetic solubility of the compound in pH 7.4 phosphate buffered saline measured after 2 hrs by LC/MS analysis; format: physicochemical; conditions: read-out: Kinetic_solubility
[4] = molecular target: T1, Sodium channel protein type 10 subunit alpha; assay: Inhibition of Nav1.8 (unknown origin) over expressed in HEK cells assessed as reduction in deltamethrin-stimulated channel activation by FLIPR assay; format: cell-based
Target sequence in this assay (Q9Y5Y9 whole entry): as above

[5] = Half life in rat; format: ADME; conditions: in vivo
[6] = Clearance in rat at 1 mg/kg; format: ADME, organism-based; conditions: in vivo
[7] = Oral bioavailability in rat at 10 mg/kg; format: ADME, organism-based; conditions: in vivo
[8] = Genotoxicity in Salmonella typhimurium by Ames test; format: toxicity; conditions: salmonella enterica subsp. enterica serovar typhimurium

Row | IC50 [1] [nM] | inhibition [2] | IC50 [4] [nM] | SMILES | further results
1 | 40 | Active |  | COc1cc(F)ccc1Oc1ncc(C(F)(F)F)cc1C(=O)Nc1cccc([S+](C)[O-])c1 (configuration not stated) | 
2 |  | Active | 1100 | COc1cc(F)ccc1Oc1ncc(C(F)(F)F)cc1C(=O)Nc1ccc[n+]([O-])c1 | solubility kinetic at 2 h [3]: 128 µg/mL (≈ 302 µM)
3 | > 10000 | inactive |  | COc1cc(F)ccc1Oc1ncc(C(F)(F)F)cc1C(=O)NCCN(C)C | 
4 | 250 | Active | 540 | COc1cc(F)ccc1Oc1ncc(C(F)(F)F)cc1C(=O)Nc1ccnnc1 | solubility kinetic at 2 h [3]: 70 µg/mL (≈ 171 µM)
5 |  | Active | 87 | CS(=O)(=O)c1cccc(NC(=O)c2cc(C(F)(F)F)cnc2Oc2ccc(F)cc2F)c1 | solubility kinetic at 2 h [3]: 0.3 µg/mL (≈ 0.635 µM)
6 |  | Active | 251 | CS(=O)(=O)c1cccc(NC(=O)c2cc(C(F)(F)F)cnc2Oc2ccc(F)cc2Cl)c1 | 
7 |  | Active | 560 | COc1cc(F)ccc1Oc1ncc(C(F)(F)F)cc1C(=O)Nc1ccncc1 | solubility kinetic at 2 h [3]: 19 µg/mL (≈ 46.6 µM)
8 | 14 | Active | 60 | COc1cc(F)ccc1Oc1ncc(C(F)(F)F)cc1C(=O)Nc1cccc(S(C)(=O)=O)c1 | half-life [5]: 5.6 h; clearance [6]: 16 mL/min/kg; bioavailability [7]: 14%
9 | 68 | Active | 69 | CN=S(C)(=O)c1cccc(NC(=O)c2cc(C(F)(F)F)cnc2Oc2ccc(F)cc2OC)c1 (configuration not stated) | solubility kinetic at 2 h [3]: 27 µg/mL (≈ 54.3 µM)
10 |  | Active | 240 | COc1cc(F)ccc1Oc1ncc(C(F)(F)F)cc1C(=O)Nc1ccncn1 | 

Continued, compound first:

Row | SMILES | IC50 [1] [nM] | inhibition [2] | IC50 [4] [nM] | further results
11 | CS(=O)(=O)c1cccc(NC(=O)c2cc(C(F)(F)F)cnc2Oc2cccnc2)c1 |  | Active | > 5000 | 
12 | COc1cc(F)ccc1Oc1nc2ccccc2nc1C(=O)Nc1cccc(S(C)(=O)=O)c1 | 36 | Active | 33 | 
13 | COc1cc(F)ccc1Oc1nc(C(F)(F)F)ccc1C(=O)Nc1cccc(S(C)(=O)=O)c1 |  | Active | 102 | 
14 | CS(=O)(=O)c1cccc(NC(=O)c2cc(C(F)(F)F)cnc2Oc2c(F)cccc2F)c1 |  | Active | > 5000 | 
15 | COc1cc(F)ccc1Oc1ccncc1C(=O)Nc1cccc(S(C)(=O)=O)c1 | > 10000 | inactive |  | 
16 | COc1cc(F)ccc1Oc1ncccc1C(=O)Nc1cccc(S(C)(=O)=O)c1 | > 10000 | inactive |  | 
17 | COc1cc(F)ccc1Oc1nccnc1C(=O)Nc1cccc(S(C)(=O)=O)c1 | > 10000 | inactive |  | 
18 | Nc1ccc[n+]([O-])c1 |  |  |  | Activity [8]: Non-toxic
